# Measured values: patent EP0960886B1, “Peptide T and related peptides in the treatment of inflammation, including multiple sclerosis” (priority 1992, dated 1993)
# “And” between values parts separate entries of the source, which are not always exact repeats. Equal entries are not always repeated.
# Assays:
# TNFα = assay: Production of TNFα by Con A stimulated PBMC, radioimmune assay (Example 12); assay type: cell-based, human
# Description: Production of Tumour Necrosis Factor α (TNFα): 5x10^6 PBMC/ml were incubated in the presence of Con A (6.25µg/ml) for 48 hours in a humid atmosphere, 5% CO2, 37°C. Peptide T (10^-9M) was added at t=0 and 24 hours. At the end of incubation, SEPHADEX™ G25 (Pharmacia) was added (10mg/ml) and incubated for 10 minutes to remove mitogen. PBMC and SEPHADEX were pelleted by centrifugation and the supernatant tested for levels of TNFα using a TNFα radioimmune assay kit from Amersham. Samples were analysed in duplicate.
# Jurkat = assay: Growth of spontaneously proliferating cell line Jurkat; assay type: cell-based; settings: p56^lck positive human T cell line
# Source text: (§1) Molt-4 is a human T lymphoma cell line, p56^lck negative, and Jurkat is a human T cell line, p56^lck positive, that will grow spontaneously in the absence of exogenous stimuli.
# Molt-4 = assay: Growth of spontaneously proliferating cell line Molt-4; assay type: cell-based; settings: p56^lck negative human T lymphoma cell line
# Source text: as §1
# [1] = test system: human monocyte chemotaxis; settings: cited from earlier work
# PBMC = assay: Antigen (measles, mumps and rubella vaccine) induced PBMC proliferation (Example 11); assay type: cell-based, human; settings: without Peptide T 3.26 ± 0.55
# Description: PBMC were incubated as described in relation to Table III in Example 9 in the presence of live, attenuated measles, mumps and rubella vaccine (Merck Sharp and Dohme, Canada) at a final dilution of 1:20. Peptide T was added either on day 1 of incubation or on a daily basis. Results are expressed as a proliferation index ± standard deviation.
# [2] = Treatment of multiple sclerosis patients, case reports (Examples 1 to 4); assay type: in vivo, human
# Description: […] They were treated with prednisone and later with physiotherapy, with little effect. […] Tone was increased in both lower limbs and they had bilateral ankle clonus. Deep tendon reflexes were 2+ in the arms, 3+ in both knees and ankles and the plantar responses were extensor.
# They were started on Peptide T, 8.5 mg subcutaneously daily. […] Their frequency of nocturia was reduced, fine motor control improved, stuttering decreased, their legs were less spastic and they could stand with minimal support. […] The patient has remained stable rather than following their normal progressive downhill course for the months they have remained on Peptide T.
# A person was diagnosed with optic neuritis secondary to multiple sclerosis after presenting with numbness, impaired motor function, and blurred vision (20/300 bilaterally). Their somatic neurological examination was within normal limits. Minor episodes of numbness and impaired speech, balance and co-ordination had occurred over 6 months, as well as headache and loss of vision.
# Peptide T therapy was started.
# A person with their first episode of multiple sclerosis as manifest by optic neuritis and complete blindness in the right eye for 2 weeks, numbness in their right leg and then both legs. […] They had worsening of their ataxias with blurred vision and oscillopsia and was given prednisone 80 mg per day. […] Findings were typical of demyelination consistent with MS. […] The tone was increased in their lower limbs and they had non-sustained ankle clonus bilaterally. Their knee jerk was increased on the right compared to the left. Plantar responses were both upgoing. They had decreased position, vibration, light touch and cold sensation in the feet compared to the hands.
# About 2 months later the patient was started on Peptide T 8.5 mg subcutaneously daily. […] They experienced improved feelings in their fingers, fine movements of their hands and improved cognitive function.
# A person with a history of dizziness, ataxia, episodes of vertigo, impairment of motor function and generalised weakness of the legs was treated with dilantin and admitted to hospital. […] They were reassessed about 2 years later for episodes of dizziness, and complaints of leg spasms. […] Plantar response was downgoing and they had upwards gaze vertical nystagmus as previously noted.
# [3] = Pharmacokinetics of Peptide T in vivo; settings: following administration in vivo
# Neopterin = assay: Serum neopterin by RIA in patients with HIV disease; assay type: in vivo, human; settings: one line per patient with HIV disease
# Source text: (§2) However, neopterin levels were elevated prior to Peptide T administration whereas serum IL-1 levels were normal.
# gp120 = settings: rat hippocampal membranes; cited from earlier work
# IL-1 = assay: Serum IL-1 by RIA in patients with HIV disease; assay type: in vivo, human; settings: one line per patient with HIV disease
# Source text: as §2
# p56^lck = assay: lck specific tyrosine kinase assay (autophosphorylation) in PBL blasts (Example 10); assay type: cell-based; set-up: key: ++++: highly active; +: slightly active; settings: Unstimulated PBL blasts; Peptide T 10^-9 M for 2 hours; without P.T. +++
# Description: PBL (peripheral blood leukocyte) blasts were prepared by incubating PBMC at 37°C with PHA (10 µg/ml) in RPMI + 10% FBS for 48 hours followed by addition of interleukin-2 and incubation for a subsequent 96 hours. Cells were washed free of IL-2 and incubated for 24 hours then washed free of FBS and incubated for 24 hours. PBL blasts remained either […] or were. treated with OKT4A (anti-CD4) at 10 µg/ml for 1 hour followed by rat anti-mouse Ig at 5 µg/ml for 5 minutes to enhance lck activity. PBL blasts were pretreated with Peptide T (10^-9 M) for 2 hours, then washed extensively before anti-CD4 stimulation. Following immunoprecipitation with anti-lck-Protein A conjugates and incubation (37°C, 10 minutes) with ^32P-ATP, p56^lck autophosphorylation was determined by autoradiography and used as a measure of p56^lck activity.
# Peptide T will inhibit the PHA-induced activation and anti-CD4 dependent enhancement of p56^lck activity as we have determined (Table V) by an lck specific tyrosine kinase assay. p56^lck is a CD4 associated tyrosine kinase involved in T cell activation and transmembrane signalling (Janeway C.A. Ann. Rev. Immunol. 10 645-674 (1992)). […]
smiles,measurement,setting,value
"C[C@@H](N)C(=O)N[C@@H](CO)C(=O)N[C@H](C(=O)N[C@H](C(=O)N[C@H](C(=O)N[C@@H](CC(N)=O)C(=O)N[C@@H](Cc1ccc(O)cc1)C(=O)N[C@H](C(N)=O)[C@@H](C)O)[C@@H](C)O)[C@@H](C)O)[C@@H](C)O [Peptide T, D-Ala-Ser-Thr-Thr-Thr-Asn-Tyr-Thr-NH2]",TNFα,"TNFα; PBMC+Con A (6.25µg/ml)+Peptide T 10^-9M, 48 hours, PBMC+Con A alone 69.0 ± 6.9",47.0 ± 0.1 fmol/100ul
same,TNFα,"TNFα; PBMC+RPMI+Peptide T, no Con A, 48 hours",<1 fmol/100ul
same,TNFα,"TNFα; RPMI+Peptide T (no cells), Peptide T 10^-9M",<1 fmol/100ul
same,growth of Jurkat cell line,Jurkat,did not significantly affect
same,growth of Molt-4 cell line,Molt-4,did not significantly affect
same,agonist activity on human monocyte chemotaxis,[1],potent agonists
same,Proliferation Index ± S.D.,"PBMC; Peptide T added Daily, 10^-7 Mol/L",1.83 ± 0.36
same,Proliferation Index ± S.D.,"PBMC; Peptide T added Daily, 10^-9 Mol/L",0.98 ± 0.16
same,Proliferation Index ± S.D.,"PBMC; Peptide T added Daily, 10^-11 Mol/L",1.56 ± 0.14
same,Proliferation Index ± S.D.,"PBMC; Peptide T added Daily, 10^-13 Mol/L",1.38 ± 0.51
same,Proliferation Index ± S.D.,"PBMC; Peptide T added Daily, 10^-15 Mol/L",1.56 ± 0.61
same,Proliferation Index ± S.D.,"PBMC; Peptide T added Daily, 10^-17 Mol/L",1.60 ± 0.60
same,Proliferation Index ± S.D.,"PBMC; Peptide T added Daily, 10^-19 Mol/L",2.27 ± 1.09
same,Proliferation Index ± S.D.,"PBMC; Peptide T added Day 1, 10^-7 Mol/L",4.02 ± 0.78
same,Proliferation Index ± S.D.,"PBMC; Peptide T added Day 1, 10^-9 Mol/L",1.91 ± 0.46
same,Proliferation Index ± S.D.,"PBMC; Peptide T added Day 1, 10^-11 Mol/L",5.35 ± 1.46
same,Proliferation Index ± S.D.,"PBMC; Peptide T added Day 1, 10^-13 Mol/L",5.46 ± 1.37
same,Proliferation Index ± S.D.,"PBMC; Peptide T added Day 1, 10^-15 Mol/L",5.56 ± 0.60
same,Proliferation Index ± S.D.,"PBMC; Peptide T added Day 1, 10^-17 Mol/L",3.99 ± 0.18
same,Proliferation Index ± S.D.,"PBMC; Peptide T added Day 1, 10^-19 Mol/L",6.15 ± 2.59
same,intellectual and motor functioning,"[2]; Example 1: person with MS, 8.5 mg subcutaneously daily, within a few weeks, sustained over 6 months",marked symptomatic improvement
same,visual acuity bilaterally,"[2]; Example 2: person, optic neuritis secondary to MS, six days after start, before therapy 20/300 bilaterally",21/30
same,"fatigue, ataxia and fine motor function after restarting",[2]; Example 3: after stopping and restarting Peptide T,remarkable improvement
same,patient-reported symptoms after start of therapy,"[2]; Example 3: person with MS, 8.5 mg subcutaneously daily, within 1 to 2 weeks",subjective improvement
same,patient-reported symptoms,"[2]; Example 4: person, 8.5 mg subcutaneously daily, within 10 days","increased energy and intellectual function, and improved vision"
same,peak plasma concentrations,[3],55 nM
same,[Neopterin],Neopterin; Pre-Peptide T (baseline),47.3 ± 0.8 nM and 27.8 ± 0.8 nM and 13.15 ± 2.85 nM and 52.0 ± 4.0 nM
same,[Neopterin],Neopterin; post-Peptide T,32.5 ± 3.5 nM and 19.75 ± 0.25 nM and 8.9 ± 0.6 nM and 16.85 ± 0.05 nM
same,concentrations that inhibit the binding of radiolabelled gp120,gp120,0.1 nM
same,[IL-1],IL-1; post-Peptide T,3.8 ± 0.12 fmol/100µl and 4.2 ± 0.07 fmol/100µl and 4.6 ± 0.11 fmol/100µl and 4.7 ± 0.05 fmol/100µl and 4.2 ± 0.02 fmol/100µl and 4.2 ± 0.26 fmol/100µl and 4.33 ± 0.003 fmol/100µl and 4.6 ± 0.02 fmol/100µl
same,[IL-1],IL-1; pre-Peptide T (baseline),3.5 ± 0.14 fmol/100µl and 5.23 ± 0.17 fmol/100µl and 4.1 ± 0.01 fmol/100µl and 4.1 ± 0.03 fmol/100µl and 3.7 ± 0.03 fmol/100µl and 4.2 ± 0.14 fmol/100µl and 3.9 ± 0.13 fmol/100µl and 4.35 ± 0.06 fmol/100µl
same,activity of p56^lck,p56^lck,+
